Reference: the NIST ThermoML archive (doi:10.1016/j.fluid.2007.01.042)
± gives the expanded uncertainty stated by the source.

Settings: Liquid, Ebulliometric method (Recirculating still)

For `CCCCCCC` [heptane], the “vapor or sublimation pressure” value (342.77 K) was 40 ± 0.05 kPa, the “vapor or sublimation pressure” value (351.08 K) was 53.33 ± 0.07 kPa and the “vapor or sublimation pressure” value (357.85 K) was 66.66 ± 0.08 kPa. For the same compound, the “vapor or sublimation pressure” value (363.64 K) was 79.99 ± 0.1 kPa and the “vapor or sublimation pressure” value (368.7 K) was 93.32 ± 0.11 kPa.
With `C1CCCCC1` [cyclohexane] the “vapor or sublimation pressure” value (325.65 K) was 40 ± 0.04 kPa, the “vapor or sublimation pressure” value (333.77 K) was 53.33 ± 0.04 kPa and the “vapor or sublimation pressure” value (340.43 K) was 66.66 ± 0.05 kPa. For the same compound, the “vapor or sublimation pressure” value (346.11 K) was 79.99 ± 0.06 kPa and the “vapor or sublimation pressure” value (351.12 K) was 93.32 ± 0.06 kPa.
For `Cc1ccccc1Cl` [2-chlorotoluene], the “vapor or sublimation pressure” value (398.81 K) was 40 ± 0.05 kPa, the “vapor or sublimation pressure” value (408.41 K) was 53.33 ± 0.06 kPa and the “vapor or sublimation pressure” value (416.25 K) was 66.66 ± 0.08 kPa. The “vapor or sublimation pressure” value (422.91 K) was 79.99 ± 0.09 kPa and the “vapor or sublimation pressure” value (428.76 K) was 93.32 ± 0.11 kPa.
For `Cc1cccc(C)c1` [1,3-dimethylbenzene], the “vapor or sublimation pressure” value (380.51 K) was 40 ± 0.09 kPa, the “vapor or sublimation pressure” value (389.66 K) was 53.33 ± 0.11 kPa and the “vapor or sublimation pressure” value (397.13 K) was 66.66 ± 0.14 kPa. The “vapor or sublimation pressure” value (403.51 K) was 79.99 ± 0.17 kPa and the “vapor or sublimation pressure” value (409.09 K) was 93.32 ± 0.19 kPa.
With `CC1CCCCC1` [methylcyclohexane] the “vapor or sublimation pressure” value (344.18 K) was 40 ± 0.09 kPa, the “vapor or sublimation pressure” value (352.8 K) was 53.33 ± 0.11 kPa and the “vapor or sublimation pressure” value (359.85 K) was 66.66 ± 0.14 kPa. The “vapor or sublimation pressure” value (365.87 K) was 79.99 ± 0.17 kPa and the “vapor or sublimation pressure” value (371.15 K) was 93.32 ± 0.19 kPa.
For `Cc1ccc(Cl)cc1` [4-chlorotoluene], the “vapor or sublimation pressure” value (401.71 K) was 40 ± 0.09 kPa, the “vapor or sublimation pressure” value (411.34 K) was 53.33 ± 0.11 kPa and the “vapor or sublimation pressure” value (419.2 K) was 66.66 ± 0.14 kPa. For the same compound, the “vapor or sublimation pressure” value (425.9 K) was 79.99 ± 0.17 kPa and the “vapor or sublimation pressure” value (431.77 K) was 93.32 ± 0.19 kPa.
In the case of `c1ccccc1` [benzene], the “vapor or sublimation pressure” value (325.6 K) is reported as 40 ± 0.04 kPa, the “vapor or sublimation pressure” value (333.56 K) is reported as 53.33 ± 0.04 kPa and the “vapor or sublimation pressure” value (340.06 K) is reported as 66.66 ± 0.05 kPa. For the same compound, the “vapor or sublimation pressure” value (345.61 K) was 79.99 ± 0.06 kPa and the “vapor or sublimation pressure” value (350.5 K) was 93.32 ± 0.06 kPa.
With `CCc1ccccc1` [ethylbenzene] the “vapor or sublimation pressure” value (377.54 K) was 40 ± 0.09 kPa, the “vapor or sublimation pressure” value (386.69 K) was 53.33 ± 0.11 kPa and the “vapor or sublimation pressure” value (394.14 K) was 66.66 ± 0.14 kPa. The “vapor or sublimation pressure” value (400.51 K) was 79.99 ± 0.17 kPa and the “vapor or sublimation pressure” value (406.12 K) was 93.32 ± 0.19 kPa.
With `ClC(Cl)(Cl)Cl` [tetrachloromethane] the “vapor or sublimation pressure” value (322.04 K) was 40 ± 0.04 kPa, the “vapor or sublimation pressure” value (330.08 K) was 53.33 ± 0.04 kPa and the “vapor or sublimation pressure” value (336.65 K) was 66.66 ± 0.05 kPa. The “vapor or sublimation pressure” value (342.21 K) was 79.99 ± 0.06 kPa and the “vapor or sublimation pressure” value (347.09 K) was 93.32 ± 0.06 kPa.
In the case of `CCOC(C)=O` [ethyl acetate], the “vapor or sublimation pressure” value (324.44 K) is reported as 40 ± 0.04 kPa, the “vapor or sublimation pressure” value (331.9 K) is reported as 53.33 ± 0.05 kPa and the “vapor or sublimation pressure” value (337.99 K) is reported as 66.66 ± 0.06 kPa. For the same compound, the “vapor or sublimation pressure” value (343.18 K) was 79.99 ± 0.07 kPa and the “vapor or sublimation pressure” value (347.7 K) was 93.32 ± 0.08 kPa.
